Test: Aqueous-phase analysis of the stability of lycopene (decomposition by light and oxygen)
Type: physicochemical
Description: It is known that light and oxygen cause lycopene to decompose. An aqueous-phase analysis of the stability of lycopene alone and of lycopene in combination with the whey protein according to the invention was carried out. After one day in the aqueous phase for lycopene alone, only 40% of the lycopene remains, whereas, with the whey, virtually 90% of it, remains.

Lycopene remaining after one day (one day): 40% | Lycopene remaining after two days (two days): virtually completely decomposed
Compound: CC(C)=CCC/C(C)=C/C=C/C(C)=C/C=C/C(C)=C/C=C/C=C(C)/C=C/C=C(C)/C=C/C=C(\C)CCC=C(C)C [lycopene alone, lycopene]
